Measurements published in patent US5138069A (E. I. Du Pont de Nemours and Company, priority 1988, dated 1992).
Where a name gives a salt, the structure may show the parent alone. Read-outs that look alike come from different tables or passages of the source.

Tests used:
Renal Hypertensive Rats = experiment: Antihypertensive effects in renal hypertensive rats; type: in vivo; conditions: Rattus norvegicus, Table 25; for minimal effective dose at 10 mg/kg: intravenous, 10 mg/kg or less; for minimal effective dose at 100 mg/kg: oral, 100 mg/kg or less
In short: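 Renal hypertensive rats (renin-driven AII elevation) dosed orally at 100 mg/kg and/or i.v. via jugular cannula at 10 mg/kg; a second set used 30 mg/kg oral and 3 mg/kg i.v. Arterial pressure recorded continuously via carotid cannula and compared with pretreatment levels.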

AII receptor = experiment: Angiotensin II receptor binding (displacement of 3H-AII); conditions: read-out: Angiotensin II Receptor Binding IC50, Table 25, rat adrenal cortical microsomes, 2 nM 3H-AII, 1 hour, room temperature
In short: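 The receptor source was rat adrenal cortical microsomes in Tris buffer, incubated with 2 nM ³H-AII plus or minus test compound for 1 h at room temperature. Bound and free ligand were separated by rapid filtration on glass-fibre filters. Filter-bound ³H-AII was counted by scintillation.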

IC50 (AII receptor; tested as sodium salt) [nM]	IC50 (AII receptor) [nM]	Structure (SMILES)	minimal effective dose at 10 mg/kg (Renal Hypertensive Rats; tested as sodium salt) [mg/kg]	minimal effective dose at 100 mg/kg (Renal Hypertensive Rats; tested as sodium salt) [mg/kg]	minimal effective dose at 10 mg/kg (Renal Hypertensive Rats) [mg/kg]	minimal effective dose at 100 mg/kg (Renal Hypertensive Rats) [mg/kg]
200	–	CCCCc1nc(Cl)c(CNC(=O)OCC)n1Cc1ccc(-c2ccccc2C(=O)O)cc1 [Example 148, 2-Butyl-1-[(2'-carboxybiphenyl-4-yl)methyl]-4-chloro-5-(ethoxycarbonylaminomethyl)imidazole]	< 10	< 100	–	–
200	–	CCCCc1nc(Cl)c(CNC(=O)OC)n1Cc1ccc(-c2ccccc2C(=O)O)cc1 [Example 150]	< 10	< 100	–	–
560	–	CCCCc1nc(Cl)c(CNC(=O)OCCC)n1Cc1ccc(-c2ccccc2C(=O)O)cc1 [Example 151]	< 10	< 100	–	–
250	–	CCCCc1nc(Cl)c(CNC(=O)OC(C)C)n1Cc1ccc(-c2ccccc2C(=O)O)cc1 [Example 152]	< 10	< 100	–	–
200	–	CCCCOC(=O)NCc1c(Cl)nc(CCCC)n1Cc1ccc(-c2ccccc2C(=O)O)cc1 [Example 153]	< 10	< 100	–	–
600	–	CCCCc1nc(Cl)c(CNC(=O)OC23CC4CC(CC(C4)C2)C3)n1Cc1ccc(-c2ccccc2C(=O)O)cc1 [Example 154]	< 10	< 100	–	–
–	60	CCCCc1nc(Cl)c(CNC(=O)OC)n1Cc1ccc(-c2ccccc2-c2nnn[nH]2)cc1 [Example 156]	–	–	< 10	–
120	–	CCCCc1nc(CNC(=O)OC)c(Cl)n1Cc1ccc(-c2ccccc2C(=O)O)cc1 [Example 160]	< 10	< 100	–	–
140	–	CCCCc1nc(CNC(=O)OCCC)c(Cl)n1Cc1ccc(-c2ccccc2C(=O)O)cc1 [Example 162]	< 10	< 100	–	–
3000	–	CCCCc1nc(Cl)c(CNC(=O)Nc2cccc3ccccc23)n1Cc1ccc(-c2ccccc2C(=O)O)cc1 [Example 165, 2-n-Butyl-1-[(2'-carboxybiphenyl-4-yl)methyl]-4-chloro-5-(1-naphthylaminocarbonylaminomethyl)-imidazole]	< 10	> 100	–	–
240	–	CCCCc1nc(Cl)c(CNC(=O)NC)n1Cc1ccc(-c2ccccc2C(=O)O)cc1 [Example 166]	< 10	> 100	–	–
600	–	CCCCc1nc(Cl)c(CNC(=O)NC(C)c2cccc3ccccc23)n1Cc1ccc(-c2ccccc2C(=O)O)cc1 (centres unmarked) [Example 171]	< 10	> 100	–	–
300	–	CCCCc1nc(Cl)c(COC)n1Cc1ccc(-c2ccccc2Cc2nn[nH]n2)cc1 [Example 174, 2-n-Butyl-4-chloro-5-methoxymethyl-1-[(2'-((tetrazol-5-yl)methyl)biphenyl-4-yl)methyl]imidazole]	< 10	> 100	–	–
1500	–	CCCCc1nc(Cl)c(CO)n1Cc1ccc(-c2ccccc2CC(=O)O)cc1 [Example 175, 2-n-Butyl-1-[(2'-(carboxymethyl)biphenyl-4-yl)methyl]-4-chloro-5-(hydroxymethyl)-imidazole.dicyclohexylamine salt]	< 10	> 100	–	–
–	200	CCCCc1nc(Cl)c(COC)n1Cc1ccc(-c2ccccc2C(=O)NNS(=O)(=O)C(F)(F)F)cc1 [Example 176, 2-n-Butyl-4-chloro-5-methoxymethyl-1-[4-(2-(trifluoromethylsulfonylhydrazido)biphenyl-4-yl)methyl]imidazole]	–	–	< 10	> 100

Structure (SMILES)	IC50 (AII receptor; tested as sodium salt) [nM]	IC50 (AII receptor) [nM]	minimal effective dose at 10 mg/kg (Renal Hypertensive Rats; tested as sodium salt) [mg/kg]	minimal effective dose at 100 mg/kg (Renal Hypertensive Rats; tested as sodium salt) [mg/kg]	minimal effective dose at 10 mg/kg (Renal Hypertensive Rats) [mg/kg]	minimal effective dose at 100 mg/kg (Renal Hypertensive Rats) [mg/kg]
CCCCc1nc(Cl)c(CNC(=O)Oc2ccccc2)n1Cc1ccc(-c2ccccc2C(=O)O)cc1 [Example 149]	450	–	< 10	< 100	–	–
